Measured values published in patent US11746100B2 (GLOBAL BLOOD THERAPEUTICS, INC., priority 2020, dated 2023).

Target: T1, human ferroportin (Homo sapiens, UniProt Q9NP59)
T1 construct: luciferase reporter (read with the Nano-Glo Luciferase Assay System); expressed in transfected cells; host or cells: CHO cells, stably transfected, expression induced with doxycycline
T1 sequence (Q9NP59 1-571): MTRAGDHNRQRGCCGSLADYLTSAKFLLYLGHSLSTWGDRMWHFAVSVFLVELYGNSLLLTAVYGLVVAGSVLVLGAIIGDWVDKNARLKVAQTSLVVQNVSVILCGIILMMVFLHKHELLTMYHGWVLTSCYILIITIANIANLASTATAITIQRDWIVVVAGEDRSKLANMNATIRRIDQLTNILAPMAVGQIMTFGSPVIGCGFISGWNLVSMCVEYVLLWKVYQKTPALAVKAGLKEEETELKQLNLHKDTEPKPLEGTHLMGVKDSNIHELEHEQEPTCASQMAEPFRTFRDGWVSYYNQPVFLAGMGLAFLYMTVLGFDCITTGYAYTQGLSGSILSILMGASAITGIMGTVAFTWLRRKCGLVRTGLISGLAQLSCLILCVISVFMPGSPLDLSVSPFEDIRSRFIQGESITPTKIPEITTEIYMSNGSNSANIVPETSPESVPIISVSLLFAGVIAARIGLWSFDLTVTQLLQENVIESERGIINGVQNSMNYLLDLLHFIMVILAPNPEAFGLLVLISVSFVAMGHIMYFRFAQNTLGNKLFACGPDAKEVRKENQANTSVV
Experiment: Biological in-vitro ferroportin internalization assay (luciferase reporter)
Format: cell-based
Conditions: average pEC50; stably-transfected CHO cell line expressing human ferroportin tagged to a luciferase reporter; 6 h incubation with test compound
Outline: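 Stably transfected CHO cells expressing luciferase-tagged human ferroportin, plated 24 h with ferric ammonium citrate and induced with doxycycline for 24 h. Compounds incubated 6 h, then luciferase activity measured by Nano-Glo; average pEC50 reported.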

| Compound | pEC50 |
| --- | --- |
| CN(CC(=O)N1CCC(F)(F)CC1)c1nc(-c2cc(OCC(C)(C)O)ccn2)nc2c1CCC2 [Compound 391, 1-(4,4-difluoropiperidin-1-yl)-2-({2-[4-(2-hydroxy-2-methylpropoxy)pyridin-2-yl]-5H,6H,7H-cyclopenta[d]pyrimidin-4-yl}(methyl)amino)ethan-1-one] | 7.7 |
| CCC(C)(CC)NC(=O)CN(C)c1nc(-c2cc(OCCO)ccn2)nc2c1CCC2 [Compound 392, 2-({2-[4-(2-hydroxyethoxy)pyridin-2-yl]-5H,6H,7H-cyclopenta[d]pyrimidin-4-yl}(methyl)amino)-N-(3-methylpentan-3-yl)acetamide] | 8.3 |
| CC[C@@H](O)COc1ccnc(-c2nc3c(c(N(C)CC(=O)NC(C)(C)C)n2)CCC3)c1 [Compound 393, N-tert-butyl-2-[(2-{4-[(2R)-2-hydroxybutoxy]pyridin-2-yl}-5H,6H,7H-cyclopenta[d]pyrimidin-4-yl)(methyl)amino]acetamide] | 8.1 |
| CC[C@H](O)COc1ccnc(-c2nc3c(c(N(C)CC(=O)NC(C)(C)C)n2)CCC3)c1 [Compound 394, (S)—N-(tert-butyl)-2-((2-(4-(2-hydroxybutoxy)pyridin-2-yl)-6,7-dihydro-5H-cyclopenta[d]pyrimidin-4-yl)(methyl)amino)acetamide] | 8.3 |
| CCC(O)(CC)COc1ccnc(-c2nc3c(c(N(C)CC(=O)NC(C)(C)C)n2)CCC3)c1 [Compound 395, N-tert-butyl-2-({2-[4-(2-ethyl-2-hydroxybutoxy)pyridin-2-yl]-5H,6H,7H-cyclopenta[d]pyrimidin-4-yl}(methyl)amino)acetamide] | 8.4 |
| CN(CC(=O)NC(C)(C)C)c1nc(-c2cc(OCC3(O)CCCCC3)ccn2)nc2c1CCC2 [Compound 396, N-tert-butyl-2-[(2-{4-[(1-hydroxycyclohexyl)methoxy]pyridin-2-yl}-5H,6H,7H-cyclopenta[d]pyrimidin-4-yl)(methyl)amino]acetamide] | 8.5 |
| CN(CC(=O)N[C@@H]1CCC[C@@H]1O)c1nc(-c2cc(OCC(C)(C)O)ccn2)nc2c1CCC2 [Compound 397, 2-({2-[4-(2-hydroxy-2-methylpropoxy)pyridin-2-yl]-5H,6H,7H-cyclopenta[d]pyrimidin-4-yl}(methyl)amino)-N-[(1R,2S)-2-hydroxycyclopentyl]acetamide] | 7.6 |
| CN(CC(=O)NC1CC1)c1nc(-c2cc(OCC(C)(C)O)ccn2)nc2c1CCC2 [Compound 398, N-cyclopropyl-2-({2-[4-(2-hydroxy-2-methylpropoxy)pyridin-2-yl]-5H,6H,7H-cyclopenta[d]pyrimidin-4-yl}(methyl)amino)acetamide] | 8.1 |
| CN(CC(=O)N1CCOCC1)c1nc(-c2cc(OCC(C)(C)O)ccn2)nc2c1CCC2 [Compound 399, 2-({2-[4-(2-hydroxy-2-methylpropoxy)pyridin-2-yl]-5H,6H,7H-cyclopenta[d]pyrimidin-4-yl}(methyl)amino)-1-(morpholin-4-yl)ethan-1-oneide] | 7.5 |
| CCN(CC)CCOc1ccnc(-c2nc3c(c(N(C)CC(=O)NC(C)(C)C)n2)CCC3)c1 [Compound 400, N-tert-butyl-2-[(2-{4-[2-(diethylamino)ethoxy]pyridin-2-yl}-5H,6H,7H-cyclopenta[d]pyrimidin-4-yl)(methyl)amino]acetamide] | 8.2 |
| CN(CC(=O)NC(C)(C)C)c1nc(-c2cc(OCCN3CCCC3)ccn2)nc2c1CCC2 [Compound 401, N-tert-butyl-2-[methyl(2-{4-[2-(pyrrolidin-1-yl)ethoxy]pyridin-2-yl}-5H,6H,7H-cyclopenta[d]pyrimidin-4-yl)amino]acetamide] | 8.3 |
| C[C@@H](CN(C)C)Oc1ccnc(-c2nc3c(c(N(C)CC(=O)NC(C)(C)C)n2)CCC3)c1 [Compound 402, N-tert-butyl-2-{[2-(4-{[(2S)-1-(dimethylamino)propan-2-yl]oxy}pyridin-2-yl)-5H,6H,7H-cyclopenta[d]pyrimidin-4-yl](methyl)amino}acetamide] | 7.8 |

Further lines, results first:

| pEC50 | Compound |
| --- | --- |
| 7.6 | CN(C)C(=O)COc1ccnc(-c2nc3c(c(N(C)CC(=O)NC(C)(C)C)n2)CCC3)c1 [Compound 403, 2-{[2-(4-{[(tert-butylcarbamoyl)methyl](methyl)amino}-5H,6H,7H-cyclopenta[d]pyrimidin-2-yl)pyridin-4-yl]oxy}-N,N-dimethylacetamide] |
| 8 | CN(CC(=O)NC(C)(C)C)c1nc(-c2cc(OCC(C)(C)N(C)C)ccn2)nc2c1CCC2 [Compound 404, N-tert-butyl-2-[(2-{4-[2-(dimethylamino)-2-methylpropoxy]pyridin-2-yl}-5H,6H,7H-cyclopenta[d]pyrimidin-4-yl)(methyl)amino]acetamide] |
| 8.3 | CN(CC(=O)NC(C)(C)C)c1nc(-c2cc(OCC3(O)CCOCC3)ccn2)nc2c1CCC2 [Compound 405, N-tert-butyl-2-[(2-{4-[(4-hydroxyoxan-4-yl)methoxy]pyridin-2-yl}-5H,6H,7H-cyclopenta[d]pyrimidin-4-yl)(methyl)amino]acetamide] |
| 7.7 | C[C@H](CN(C)C)Oc1ccnc(-c2nc3c(c(N(C)CC(=O)NC(C)(C)C)n2)CCC3)c1 [Compound 406, N-tert-butyl-2-{[2-(4-{[(2R)-1-(dimethylamino)propan-2-yl]oxy}pyridin-2-yl)-5H,6H,7H-cyclopenta[d]pyrimidin-4-yl](methyl)amino}acetamide] |
| 6.6 | CN(C)CC(C)(C)Oc1ccnc(-c2nc3c(c(N(C)CC(=O)NC(C)(C)C)n2)CCC3)c1 [Compound 407, N-tert-butyl-2-{[2-(4-{[1-(dimethylamino)-2-methylpropan-2-yl]oxy}pyridin-2-yl)-5H,6H,7H-cyclopenta[d]pyrimidin-4-yl](methyl)amino}acetamide] |
| 8.5 | C[C@H](C(=O)NC(C)(C)C)N(C)c1nc(-c2cc(OCCN(C)C)ccn2)nc2c1CCC2 [Compound 408, (2R)—N-tert-butyl-2-[(2-{4-[2-(dimethylamino)ethoxy]pyridin-2-yl}-5H,6H,7H-cyclopenta[d]pyrimidin-4-yl)(methyl)amino]propanamide] |
| 7.6 | CC(C)(O)COc1ccnc(-c2nc3c(c(NCC(=O)NC(C)(C)C)n2)CCC3)c1 [Compound 409, N-tert-butyl-2-({2-[4-(2-hydroxy-2-methylpropoxy)pyridin-2-yl]-5H,6H,7H-cyclopenta[d]pyrimidin-4-yl}amino)acetamide] |
| 7.3 | CN(C)CCOc1ccnc(-c2nc3c(c(N(C)CC(=O)Nc4cnn(C5CC5)c4)n2)CCC3)c1 [Compound 410, N-(1-cyclopropyl-1H-pyrazol-4-yl)-2-[(2-{4-[2-(dimethylamino)ethoxy]pyridin-2-yl}-5H,6H,7H-cyclopenta[d]pyrimidin-4-yl)(methyl)amino]acetamide] |
| 8.2 | CN(CC(=O)NC(C)(C)C)c1nc(-c2cc(OC[C@H]3CCCN3C)ccn2)nc2c1CCC2 [Compound 411, N-tert-butyl-2-{methyl[2-(4-{[(2R)-1-methylpyrrolidin-2-yl]methoxy}pyridin-2-yl)-5H,6H,7H-cyclopenta[d]pyrimidin-4-yl]amino}acetamide] |
| 8.1 | CN(CC(=O)NC(C)(C)C)c1nc(-c2cc(OC[C@@H]3CCCN3C)ccn2)nc2c1CCC2 [Compound 412, N-tert-butyl-2-{methyl[2-(4-{[(2S)-1-methylpyrrolidin-2-yl]methoxy}pyridin-2-yl)-5H,6H,7H-cyclopenta[d]pyrimidin-4-yl]amino}acetamide] |
